Data from patent US20250213560A1, “NITROGEN-CONTAINING HETEROCYCLIC COMPOUNDS HAVING PHENYL GROUP AND USES THEREOF” (BNH RESEARCH CO., LTD., priority 2022, published 2025).

Assays:
APP/PS1 mice [1] = test: Hippocampal fEPSP I/O curve and LTP in Alzheimer's model mice; assay type: in vivo, mouse; details: hippocampus CA1, Os pump ventricular infusion 3 μM
From the text: Field recordings were made with a concentric bipolar electrode positioned in the stratum radiatum of the CA1 region using an extracellular glass pipette (3.5 M (2) filled with aCSF. Specifically, fEPSPs were evoked by Schaffer collateral (SC)/commissural fibers with a concentric bipolar electrode placed 200 to 300 μm from the recording pipette. Stimulation was delivered through a bipolar electrode (FHC, Bowdoin, ME, USA) placed in the Schaffer collateral-CA1 (SC). Te SC circuit was visualized using differential interference contrast (DIC) microscopy at 4× magnification and identified by the ability to evoke short and constant latency field excitatory postsynaptic potentials (fEPSPs) at CA1 synapses by SC input stimulation. In all fEPSP experiments, the test stimulation were measured prior to the beginning of all the experiments (30 μA) and a test-pulse stimulation strength that evokes 50% of the maximum fEPSP was used. Baseline synaptic responses was recorded for 30 minutes, and then long-term potentiation (LTP) was induced by high-frequency stimulation (HFS; 100 Hz, 4 trains, 1 s duration, 20 s inter-train interval). […]
Excitatory postsynaptic potential (EPSP) was recorded by the whole-cell patch clamp method using a patch clamp amplifier (molecular devices, USA). […] It was then recorded for 60 minutes (LTP). […]

APP/PS1 mice [2] = test: Barrel cortex TC potency and GABA/AMPA ratio in Alzheimer's model mice; assay type: in vivo, mouse
Description: All electrophysiological experiments were conducted at 27 to 29° C. For electrophysiological experiments, electrodes with […] resistance were used and stimuli were applied to the ventral posteromedial nucleus (VPM) using a concentric bipolar electrode (FHC, Bowdoin, ME). The somatosensory cortex was identified by the presence of barrels under 4×magnification and differential interference contrast (DIC) optics, and by the ability to evoke short and constant latency field excitatory postsynaptic potentials (fEPSPs) by VPM stimulation. […]
For the minimal stimulation protocol (Potency), VB thalamic stimulation intensity was adjusted to find the lowest intensity that elicited a mixture of synaptic responses and failures. Failure rate was calculated as the number of failures/total number of trials. Potency was calculated as the mean EPSC peak amplitude excluding failures (see Chittajallu & Isaac, 2010, Emergence of cortical inhibition by coordinated sensory-driven plasticity at distinct synaptic loci, DOI: 10.1038/nn.2639; see Isaac et al., 1997, Silent Synapses during Development of Thalamocortical Inputs, https://doi.org/10.1016/S08966273 (00) 80267-6; and see Stevens & Wang, 1995, Facilitation and depression at single central synapses, DOI: 10.1016/08966273 (95) 90223-6). […]

C[C@H]1CC[C@@H](C(=O)O)CN1C(=O)Cc1ccc(-c2cncnc2)cc1 [BnH12003, (3R,6S)-6-methyl-1-(2-(4-(pyrimidin-5-yl)phenyl)acetyl) piperidine-3-carboxylic acid]
I/O curve of field EPSP (synaptic efficacy) (APP/PS1 mice [1]): synaptic efficacy was increased | LTP of EPSP, excitatory SC pathway (APP/PS1 mice [1]): significantly increased | GABA/AMPA ratio (balance of excitation/inhibition) (APP/PS1 mice [2]; barrel cortex layer 4, Os pump 3 μM): maintaining the balance of excitation/inhibition | excitatory TC synaptic potential (TC potency) (APP/PS1 mice [2]; barrel cortex layer 4, Os pump, BnH12003 3 μM, solanezumab 200 μg): increased the excitatory TC synaptic potential
